According to patent publication EP0138995B1, “REGULATION OF ENZYMES WHICH UTILIZE TETRAHYDROBIOPTERIN OR TETRAHYDROFOLATE COFACTORS WITH 6, 6-DISUBSTITUTED-TETRAHYDROPTERIDINES” (South Alabama Medical Science Foundation, priority 1983, dated 1984):
Where two headings read alike, the source gives them in different places.

Columns and labels:
[1] = biological target: T1, Rat Liver Phenylalanine Hydroxylase (Rattus norvegicus, UniProt P04176); settings: data from the literature (footnotes c, d), cited from earlier work
T1 construct: Cofactor for Rat Liver Phenylalanine Hydroxylase; from tissue; host or cells: rat liver
T1 sequence (P04176 1-453): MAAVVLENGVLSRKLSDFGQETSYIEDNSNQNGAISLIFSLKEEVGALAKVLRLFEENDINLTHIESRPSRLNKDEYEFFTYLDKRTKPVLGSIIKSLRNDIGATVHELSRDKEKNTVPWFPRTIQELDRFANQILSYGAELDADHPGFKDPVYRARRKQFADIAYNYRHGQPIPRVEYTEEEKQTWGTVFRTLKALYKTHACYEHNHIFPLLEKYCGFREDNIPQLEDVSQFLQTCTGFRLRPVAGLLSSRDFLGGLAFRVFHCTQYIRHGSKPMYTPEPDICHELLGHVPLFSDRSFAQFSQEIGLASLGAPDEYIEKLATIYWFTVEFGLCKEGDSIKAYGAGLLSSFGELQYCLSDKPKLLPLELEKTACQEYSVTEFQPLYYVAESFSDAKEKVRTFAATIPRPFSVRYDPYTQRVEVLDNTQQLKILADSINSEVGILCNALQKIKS

[2] = biological target: T2, Beef Liver Dihydropteridine Reductase (Bos taurus, UniProt Q3T0Z7); assay: Quinoid dihydropterin as substrate for dihydropteridine reductase (beef liver); assay type: biochemical; settings: substrate produced by Peroxidase + H2O2
T2 construct: from tissue; host or cells: beef liver
T2 sequence (Q3T0Z7 1-242): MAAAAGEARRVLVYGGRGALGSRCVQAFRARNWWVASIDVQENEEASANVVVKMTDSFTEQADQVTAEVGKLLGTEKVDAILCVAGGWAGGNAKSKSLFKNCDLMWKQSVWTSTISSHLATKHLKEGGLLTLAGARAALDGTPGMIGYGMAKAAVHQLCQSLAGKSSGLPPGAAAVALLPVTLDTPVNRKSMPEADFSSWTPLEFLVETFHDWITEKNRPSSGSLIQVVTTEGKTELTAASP
Experimental: (§1) The quinoid was generated from 6,6-Me₂PH₄, as outlined previously. […] Peroxidase (6 units/ml final volume) was temperature equilibrated in 0.1 M Tris·HCl, pH 7.4, at 27° for 5 minutes. H₂O₂ (1.2 mM final concentration) was then added, followed by 6,6-Me₂PH₄. […] At 5 minutes, 6,6-Me₂PH₄ was introduced and monitored at 340 nm. […] Reaction was then initiated with dihydropteridine reductase (0.01 units/ml). Rates were calculated from the enzyme dependent decrease in O.D. at 340 nm, using an extinction coefficient of 9.8 for the chemically synthesized substrate and 6.2 for the peroxidase- and phenylalanine-hydroxylase-containing reactions in which the pterin is maintained in the quinoid form.

[3] = biological target: T3, phenylalanine hydroxylase (Rattus norvegicus, UniProt P04176); assay: Inhibition of phenylalanine hydroxylase by dihydropterins; assay type: biochemical; settings: competitive inhibition; 6-MePH4 as cofactor 0.05 mM to 0.3 mM; read-out: apparent Ki
T3 construct: from tissue
T3 sequence (P04176 1-453): T1 sequence (P04176 1-453)
Experimental: Measurements were made under standard assay conditions with cofactor concentration varied between 0.05 and 0.3 mM. Stock solutions of 6,6-Me₂PH₂ were in 0.1 M assay buffer.
Standard assay conditions, with 6-MePH₄ as cofactor over a range of 0.05 mM to 0.3 mM, were employed.

[4] = biological target: T4, Sheep Liver Dihydropteridine Reductase (Ovis aries, UniProt A0ACI6QPJ5); assay: Quinoid dihydropterin as substrate for dihydropteridine reductase (sheep liver); assay type: biochemical; settings: substrate produced by Peroxidase + H2O2
T4 sequence (A0ACI6QPJ5 46-254): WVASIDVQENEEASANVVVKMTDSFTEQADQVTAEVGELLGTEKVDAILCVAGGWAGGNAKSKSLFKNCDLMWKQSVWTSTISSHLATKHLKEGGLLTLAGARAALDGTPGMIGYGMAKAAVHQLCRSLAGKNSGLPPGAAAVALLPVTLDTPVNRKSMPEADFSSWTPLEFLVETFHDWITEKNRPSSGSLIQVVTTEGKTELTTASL
Experimental: as §1, with “6,6-Me₂PH₄. Conversion to q-6,6-Me₂PH₂, monitored at 340 nm, was complete within a few seconds. • (iii) Generation by phenylalanine hydroxylase:” for “6,6-Me₂PH₄.”, “nm. Conversion of 6,6-Me₂PH₄ to quinoid dihydropterin was complete in 1-7 minutes, depending on the concentration.” for “nm.”, “form. […] This Km was obtained regardless of the method of generation of the quinoid dihydropterin. The Vmax's were also the same for the dihydropteridine reductase catalyzed reduction of quinoid generated by any of the three methods (Table VI). Thus, the quinoid products of each procedure appear to behave equally.” for “form.”

[5] = rats, 125 mg BH4/kg intravenously, cited from earlier work
[6] = cited from earlier work
[7] = cited from earlier work; remark: listed apart in the source
[8] = Rate of air oxidation of 6,6-Me2PH4; assay type: physicochemical; settings: 0.1 M Tris·HCl, pH 7.4 at 27°
Experimental: Stability. The rate of air oxidation of 6,6-Me₂PH₄ was measured in 0.1 M Tris·HCl, pH 7.4 at 27°, i.e., enzyme assay conditions. […] This is similar to the constant previously determined for 6,7-Me₂PH₄.

[9] = biological target: T1, Rat Liver Phenylalanine Hydroxylase; assay: Phenylalanine hydroxylase cofactor assay (cofactor consumption and tyrosine formation); assay type: biochemical; settings: for 6,6-Me2PH4 oxidized: 2-3 minutes, no regenerating system; for 6,6-Me2PH4 tyrosine: ratio cofactor oxidized to tyrosine produced; for Relative Vmax: relative to l-BH4 = 1.0
Experimental: The 6,6-dimethyl substituted tetrahydropterin was tested for cofactor activity in a standard phenylalanine hydroxylase assay in which both cofactor consumption and tyrosine formation were monitored. […] An apparent Michaelis constant was determined at 1 mM phenylalanine and atmospheric oxygen with concentrations of 6,6-Me₂PH₄ ranging from 0.02-0.3 mM. The effect of a second methyl at the 6-position slightly increases the affinity for phenylalanine hydroxylase, since the apparent Km was two-thirds to three-quarters that of 6-methyl and 6,7-dimethyltetrahydropterin (Table IV). […] The maximum velocity of the reaction with 6,6-Me₂PH₄ is similar to that with the 6,7-dimethyl compound and about 6 times slower than with the natural cofactor (Table IV).

[10] = Preliminary in vivo testing: brain concentration after intraperitoneal injection; settings: mice, intraperitoneally, 0.1 µmole/g body weight
Experimental: Preliminary in vivo testing of 6,6-disubstituted pteridines has been conducted. 6,6-Dimethyltetrahydropterin was injected intraperitoneally into mice at a dose rate of 0.1 µmole/g body weight. Maximum brain concentration was reached about one hour after injection and was more than 30 times higher than the maximum level reached by tetrahydrobiopterin injected in a similar manner.

[11] = cited from earlier work; for concentration: read-out: blood level
[12] = cited from earlier work; remark: listed apart in the source
[13] = 0.2 mM cofactor, l-BH4: sigmoidal curve, Hill coefficient = 2, read-out: Km' for Phenylalanine
[14] = 1 mM phenylalanine, atmospheric oxygen, 0.1 M Tris·HCl, pH 7.4, 27°C, read-out: Km' for Cofactor

CC1Nc2nc(N)[nH]c(=O)c2NC1C (stereo not shown) [6,7-Me2PH4, 6,7-dimethyltetrahydropterin]
Km [1, 13]: 800 ± 100 µM
Km [1, 14]: 90 ± 10 µM
Relative Vmax ([1]; relative to l-BH4 = 1.0): 0.17

CC1(c2ccccc2)CNC2=NC(N)=NC(=O)C2=N1 (stereo not shown) [Compound 6-Ph-6-MePH2, 2-Amino-4-hydroxy-6-methyl-6-phenyl-quinoid-dihydro-pteridine]
Relative Vmax Beef [2]: 0.6

C[C@H](O)[C@H](O)C1=Nc2c(nc(N)[nH]c2=O)NC1 [7,8-dihydrobiopterin, reference compound]
Ki [3]: 50 µM

quinoid dihydrobiopterin [dihydro-biopterin (natural isomer), reference compound]
Km [2]: 0.004 mM
Relative Vmax Beef [2]: 0.5
Km [4]: 0.004 mM
Relative Vmax Sheep [4]: 0.5

C[C@H](O)[C@H](O)[C@H]1CNc2nc(N)[nH]c(=O)c2N1 [l-BH4, tetrahydrobiopterin]
Km [1, 13]: 170 µM
Km [1, 14]: 21 ± 3 µM
maximum increase of BH4 in the striatum ([5]; in 15 mins): 30%
striatal increase as share of the concentration administered assuming uniform body distribution [5]: 0.2%
time of return of striatal BH4 to normal [5]: less than 2 hours
increase in CSF BH4 ([6]; 2 mg BH4 (i.v.)/kg/day for 3 days, 1 day after the last injection, BH4-synthesis-deficient child): no increase
CSF BH4 ([6]; 2.5 hours after oral treatment, in two equal doses, from 2 ng before): 44 ng/mL
CSF BH4 as share of that expected assuming uniform body distribution and retention ([6]; 2.5 hours after oral treatment): 0.22%

C[C@H](O)C(=O)C1=Nc2c(nc(N)[nH]c2=O)NC1 [sepiapterin]
time normal levels of phenylalanine were maintained ([7]; orally 0.6 mg-1.25 mg/kg): 24 h
effect on neurological symptoms ([6]; 2.75 mg (p.o.)/kg, one patient): shown to have an effect

CC1(C)CNc2nc(N)[nH]c(=O)c2N1 [6,6-Me2PH4, 6,6-Dimethyltetrahydropterin]
half-life [8]: 23 min
pseudo first order rate constant of air oxidation [8]: 0.03 min⁻¹
coupling of the reaction (tyrosine formed per cofactor molecule consumed) [9]: completely coupled reaction
maximum velocity, times slower than with the natural cofactor [9]: about 6
Tyrosine produced ([9]; Initial [6,6-Me2PH4] 0.01 mM): 4.27 nmol
6,6-Me2PH4 oxidized ([9]; Initial [6,6-Me2PH4] 0.01 mM): 4.4 nmol
Tyrosine produced ([9]; Initial [6,6-Me2PH4] 0.03 mM): 9.77 nmol
6,6-Me2PH4 oxidized ([9]; Initial [6,6-Me2PH4] 0.03 mM): 9.1 nmol
Tyrosine produced ([9]; Initial [6,6-Me2PH4] 0.06 mM): 12.57 nmol
6,6-Me2PH4 oxidized ([9]; Initial [6,6-Me2PH4] 0.06 mM): 11.76 nmol
Tyrosine produced ([9]; Initial [6,6-Me2PH4] 0.1 mM): 19.25 nmol
6,6-Me2PH4 oxidized ([9]; Initial [6,6-Me2PH4] 0.1 mM): 21.18 nmol
6,6-Me2PH4 tyrosine ([9]; Initial [6,6-Me2PH4] 0.01 mM): 1.03
6,6-Me2PH4 tyrosine ([9]; Initial [6,6-Me2PH4] 0.03 mM): 0.93
6,6-Me2PH4 tyrosine ([9]; Initial [6,6-Me2PH4] 0.06 mM): 0.94
6,6-Me2PH4 tyrosine ([9]; Initial [6,6-Me2PH4] 0.1 mM): 1.10
Relative Vmax [9]: 0.17
maximum brain concentration, times higher than the maximum level reached by tetrahydrobiopterin [10]: more than 30
time after injection at which maximum brain concentration was reached [10]: about one

CC1N=C2C(=O)N=C(N)N=C2NC1C (stereo not shown) [6,7-Me2PH2]
Relative Vmax Sheep [4]: 2

CC(O)C(O)C1=Nc2c(nc(N)[nH]c2=O)NC1 (stereo not shown) [Dihydrobiopterin]
time normal levels of phenylalanine were maintained ([7]; orally 2.5 mg/kg): 24 h

CC1CNc2nc(N)[nH]c(=O)c2N1 (stereo not shown) [Compound 6-MePH4, 6-methyltetrahydropterin]
Relative Vmax [9]: 0.77
share of striatal 6-MePH4 remaining in the fully reduced tetrahydro-form ([11]; 2 hrs after injection, Kapatos and Kaufman): over 85%
share of 6-MePH4 in the brain in the reduced form ([11]; Curtius et al.): 30%
efficiency of entry into the brain, times that of an equal dose of BH4 ([11]; rats, 0.11 µmole (i.p.)/gm body weight): up to 10
brain level ([11]; rats, 0.11 µmole (i.p.)/gm, at 30 minutes, maintained until 2 hours): 2 nmoles/g brain
brain level as share of that expected assuming equal body distribution ([11]; rats, 0.11 µmole (i.p.)/gm): 2%
concentration ([11]; rats, i.p., at 30 minutes): 40 µM
concentration ([11]; rats, i.p., by 2 hrs): 10 µM
half life for retention by the brain ([11]; rats, i.p.): 180 min
half life for retention by the plasma ([11]; rats, i.p.): 42 min
CSF level ([12]; at 9.5 hours after intravenous injection of 20 mg/kg): 0.06 µg/mL
CSF level ([12]; three hours after intravenous injection of 20 mg/kg, 180 min): 0.45 µg/mL
CSF level as share of that expected on the basis of equal body distribution ([12]; three hours after intravenous injection of 20 mg/kg): 2.2%
CSF 5-hydroxyindoleacetic acid ([12]; two hours after 8 mg/kg, from 6 before, normal = 30): 18 ng/mL
CSF homovanillic acid ([12]; two hours after 8 mg/kg, from 9 before, normal 132): 22 ng/mL
